Results published in patent US20230278954A1, “BRANCHED LIPID COMPOUDS” (priority 2020, published 2023).
“And” between values parts separate entries of the source, which are not always exact repeats. Equal entries are not always repeated.

How the values were obtained:
[1] = molecular target: T1, human TLR2 (Homo sapiens, UniProt O60603); assay: Activation of human TLR2 III: HEK-Blue hTLR2 dose response (SEAP reporter); format: cell-based; details: for optical density (650 nm): screenings 1-3; for stimulatory / agonist activity for hTLR2 (in words) / fold induction at 120 fg/mL / fold induction at 490 fg/mL / fold induction at 1.95 pg/mL / fold induction at 7.81 pg/mL / fold induction at 31.25 pg/mL / fold induction at 0.000125 µg/mL / fold induction at 0.0005 µg/mL: HEK-Blue hTLR2; for fold induction at 120 fg/mL / fold induction at 490 fg/mL / fold induction at 1.95 pg/mL / fold induction at 7.81 pg/mL / fold induction at 31.25 pg/mL / fold induction at 0.000125 µg/mL / fold induction at 0.0005 µg/mL: read-out: Fold Induction (ratio of average induced value to average non-induced value); for EC50: agonism of hTLR2, HEK-Blue hTLR2
T1 construct: expressed in transfected cells; host or cells: HEK-Blue hTLR2 cells
T1 sequence (O60603 21-784): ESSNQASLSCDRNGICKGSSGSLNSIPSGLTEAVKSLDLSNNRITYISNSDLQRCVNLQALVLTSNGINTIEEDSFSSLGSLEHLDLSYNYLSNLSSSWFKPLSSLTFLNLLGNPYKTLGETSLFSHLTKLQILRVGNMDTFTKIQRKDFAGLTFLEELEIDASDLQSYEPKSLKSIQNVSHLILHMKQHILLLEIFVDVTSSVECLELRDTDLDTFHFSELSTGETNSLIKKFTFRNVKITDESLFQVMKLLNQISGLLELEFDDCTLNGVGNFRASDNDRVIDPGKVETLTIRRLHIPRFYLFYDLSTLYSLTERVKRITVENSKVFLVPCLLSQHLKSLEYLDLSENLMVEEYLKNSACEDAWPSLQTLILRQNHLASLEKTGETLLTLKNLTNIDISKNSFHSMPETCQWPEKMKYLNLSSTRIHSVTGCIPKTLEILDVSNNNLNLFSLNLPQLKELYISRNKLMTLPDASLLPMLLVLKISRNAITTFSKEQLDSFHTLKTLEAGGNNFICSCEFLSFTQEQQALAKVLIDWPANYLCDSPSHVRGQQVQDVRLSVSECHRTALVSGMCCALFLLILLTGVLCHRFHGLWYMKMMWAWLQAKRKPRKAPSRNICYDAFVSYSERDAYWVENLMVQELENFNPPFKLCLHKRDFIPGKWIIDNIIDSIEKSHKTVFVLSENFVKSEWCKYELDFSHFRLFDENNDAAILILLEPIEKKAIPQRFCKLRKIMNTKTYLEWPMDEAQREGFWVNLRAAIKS
T1 sequence (Q9Y2C9 32-796 partner): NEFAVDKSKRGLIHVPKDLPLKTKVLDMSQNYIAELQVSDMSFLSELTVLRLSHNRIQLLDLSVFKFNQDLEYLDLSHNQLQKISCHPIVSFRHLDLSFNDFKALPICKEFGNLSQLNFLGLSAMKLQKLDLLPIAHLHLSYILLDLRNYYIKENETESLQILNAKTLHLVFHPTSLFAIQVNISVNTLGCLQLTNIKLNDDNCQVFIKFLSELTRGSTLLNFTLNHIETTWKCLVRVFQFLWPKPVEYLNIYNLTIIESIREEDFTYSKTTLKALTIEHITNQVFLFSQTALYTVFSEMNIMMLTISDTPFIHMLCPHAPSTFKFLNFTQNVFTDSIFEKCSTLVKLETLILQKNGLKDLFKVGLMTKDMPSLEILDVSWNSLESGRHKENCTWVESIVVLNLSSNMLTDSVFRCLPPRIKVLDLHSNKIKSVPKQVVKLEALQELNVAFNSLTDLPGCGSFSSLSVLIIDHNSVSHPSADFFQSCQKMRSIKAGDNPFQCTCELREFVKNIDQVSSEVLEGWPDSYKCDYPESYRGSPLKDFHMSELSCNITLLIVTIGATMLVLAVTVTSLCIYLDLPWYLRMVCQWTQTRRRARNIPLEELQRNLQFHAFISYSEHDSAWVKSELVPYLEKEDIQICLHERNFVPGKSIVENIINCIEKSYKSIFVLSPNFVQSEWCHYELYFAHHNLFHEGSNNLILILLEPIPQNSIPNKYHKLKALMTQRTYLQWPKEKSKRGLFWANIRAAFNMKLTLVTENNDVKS
Protocol: (§1) Toll-Like Receptor (TLR) stimulation is tested by assessing NF-KB activation in the TLR expressing cell lines. HEK-Blue h/mTLR2 cells have been stably transfected with human or mouse TLR2 and CD14. The activity of the test articles are tested on human and mouse TLR2, as potential agonists. The test articles are evaluated at seven concentrations and compared to control ligands (see list below). These steps are performed in triplicate.
(§2) A 5 µg/mL working stock was then prepared for each compound from the 20 µg/mL dilution in sterile PBS. Starting from the 5 µg/mL working stock, a series of six 1:4 serial dilutions were made by mixing 100 µL of the previous highest dilution with 300 µL sterile PBS.
(§3) The secreted embryonic alkaline phosphatase (SEAP) reporter is under the control of a promoter inducible by the transcription factor NF-κB. This reporter gene allows the monitoring of signaling through the TLR, based on the activation of NF-κB. In a 96-well plate (200 µL total volume) containing the appropriate cells (50,000 - 75,000 cells/well), 20 µL of the test article or the positive control ligand (HKLC) is added to the wells. The media added to the wells is designed for the detection of NF-κB induced SEAP expression. After a 16-24-hour incubation the optical density (OD) is read at 650 nm on a Molecular Devices SpectraMax 340PC absorbance detector.

[2] = system: HEK-Blue Null2 cells; assay: TLR- control cell line HEK-Blue Null2 (control for mouse TLR2); format: cell-based
Protocol: as §3

[3] = system: HEK-Blue Null1 cells; assay: TLR- control cell line HEK-Blue Null1 (control for human TLR2); format: cell-based
Protocol: as §3

[4] = molecular target: T2, mouse TLR2 (Mus musculus, UniProt Q9QUN7); assay: HEK-Blue mTLR2 dose response (SEAP reporter); format: cell-based
T2 construct: expressed in transfected cells; host or cells: HEK-Blue mTLR2 cells
T2 sequence (Q9QUN7 25-784): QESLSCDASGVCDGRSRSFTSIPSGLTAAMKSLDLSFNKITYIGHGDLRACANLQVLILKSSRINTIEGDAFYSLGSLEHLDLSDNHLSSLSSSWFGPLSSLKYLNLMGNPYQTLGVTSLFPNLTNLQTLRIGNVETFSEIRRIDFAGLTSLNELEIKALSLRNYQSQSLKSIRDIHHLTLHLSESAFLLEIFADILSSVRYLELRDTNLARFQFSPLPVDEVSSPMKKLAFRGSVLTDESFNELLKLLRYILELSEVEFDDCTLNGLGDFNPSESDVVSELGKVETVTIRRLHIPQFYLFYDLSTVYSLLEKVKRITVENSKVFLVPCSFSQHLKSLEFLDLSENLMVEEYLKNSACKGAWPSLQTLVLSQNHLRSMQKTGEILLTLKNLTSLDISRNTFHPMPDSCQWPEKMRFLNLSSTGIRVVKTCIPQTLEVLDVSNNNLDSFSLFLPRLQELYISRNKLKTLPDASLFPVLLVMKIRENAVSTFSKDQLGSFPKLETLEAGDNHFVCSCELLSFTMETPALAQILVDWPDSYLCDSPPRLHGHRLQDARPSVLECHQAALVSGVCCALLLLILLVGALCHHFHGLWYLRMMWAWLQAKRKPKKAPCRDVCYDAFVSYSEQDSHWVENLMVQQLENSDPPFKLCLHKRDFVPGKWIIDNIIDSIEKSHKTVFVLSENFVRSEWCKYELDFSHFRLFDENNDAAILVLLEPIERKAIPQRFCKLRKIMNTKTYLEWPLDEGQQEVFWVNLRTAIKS
T2 sequence (Q9Y2C9 32-796 partner): as the sequence (Q9Y2C9 32-796 partner) above
Protocol: as §1, §2, §3

[5] = Stability III: accelerated aging at 40° C., 3 or 6 weeks, HPLC recovery; format: physicochemical
Protocol: Recovery of the target compound was assessed by HPLC, and the values as a percentage of the reference sample are reported in Table 14 and in FIG. 5.

SMILES | Average optical density (650 nm) ([1]; 0.12 pg/mL) | optical density (650 nm) ([1]; 0.12 pg/mL) | Average optical density (650 nm) ([1]; 0.49 pg/mL) | optical density (650 nm) ([1]; 0.49 pg/mL) | Average optical density (650 nm) ([1]; 1.95 pg/mL) | optical density (650 nm) ([1]; 1.95 pg/mL) | Average optical density (650 nm) ([1]; 7.81 pg/mL) | optical density (650 nm) ([1]; 7.81 pg/mL) | Average optical density (650 nm) ([1]; 31.25 pg/mL) | optical density (650 nm) ([1]; 31.25 pg/mL) | Average optical density (650 nm) ([1]; 125 pg/mL) | optical density (650 nm) ([1]; 125 pg/mL) | Average optical density (650 nm) ([1]; 500 pg/mL) | optical density (650 nm) ([1]; 500 pg/mL) | stimulatory / agonist activity for hTLR2 (in words) [1] | fold induction at 120 fg/mL ([1]; 0.12 pg/mL) | fold induction at 490 fg/mL ([1]; 0.49 pg/mL) | fold induction at 1.95 pg/mL ([1]; 1.95 pg/mL) | fold induction at 7.81 pg/mL ([1]; 7.81 pg/mL) | fold induction at 31.25 pg/mL ([1]; 31.25 pg/mL) | further results
CCCCCCCCCCCCCC[C@@H](C)C(=O)OCC[C@H](CSC[C@H](N)C(=O)N[C@@H](CO)C(=O)NCCOCCOCCOCCOCCOCCOCCOCCOCCOCCOCCOCCOCCOCCOCCOCCOCCOCCOCCOCCOCCOCCOCCOCCOCCOCCOCCOCCOCCC(=O)NCC(N)=O)OC(=O)[C@H](C)CCCCCCCCCCCCCC [Compound B14] | 0.823 | 0.826 and 0.869 and 0.774 | 1.342 | 1.256 and 1.364 and 1.406 | 2.018 | 1.994 and 2.061 and 2.000 | 2.562 | 2.569 and 2.545 and 2.571 | 2.744 | 2.820 and 2.720 and 2.691 | 2.814 | 2.928 and 2.800 and 2.713 | 2.759 | 2.722 and 2.765 and 2.791 | stimulatory activity | 18.7 | 25.5 | 28 | 33 | 33.7 | fold induction at 0.000125 µg/mL ([1]; 125 pg/mL): 35.2; fold induction at 0.0005 µg/mL ([1]; 500 pg/mL): 33.9; EC50 [1]: 0.264 nM; stimulatory response in HEK-Blue Null2 (mouse) cells (in words) [2]: not observed; stimulatory response in HEK-Blue Null1 (human) cells (in words) [3]: not observed; stimulatory / agonist activity for mTLR2 (in words) [4]: stimulatory activity; stability under accelerated storage conditions (in words) [5]: excellent stabilities
CCCCCCCCCCCCCC[C@H](C)C(=O)OCC[C@H](CSC[C@H](N)C(=O)N[C@@H](CO)C(=O)NCCOCCOCCOCCOCCOCCOCCOCCOCCOCCOCCOCCOCCOCCOCCOCCOCCOCCOCCOCCOCCOCCOCCOCCOCCOCCOCCOCCOCCC(=O)NCC(N)=O)OC(=O)[C@@H](C)CCCCCCCCCCCCCC [Compound B16] | 0.666 | 0.688 and 0.591 and 0.718 | 1.099 | 1.080 and 1.097 and 1.121 | 1.521 | 1.478 and 1.513 and 1.573 | 1.978 | 1.903 and 1.897 and 2.133 | 2.252 | 2.093 and 2.297 and 2.367 | 2.540 | 2.531 and 2.544 and 2.545 | 2.475 | 2.466 and 2.488 and 2.472 | stimulatory activity | 9.2 | 15.3 | 21.1 | 27.5 | 31.3 | fold induction at 0.000125 µg/mL ([1]; 125 pg/mL): 35.3; fold induction at 0.0005 µg/mL ([1]; 500 pg/mL): 34.4; EC50 [1]: 0.504 nM; stimulatory response in HEK-Blue Null2 (mouse) cells (in words) [2]: not observed; stimulatory response in HEK-Blue Null1 (human) cells (in words) [3]: not observed; stimulatory / agonist activity for mTLR2 (in words) [4]: stimulatory activity; stability under accelerated storage conditions (in words) [5]: excellent stabilities
